Assay results reported in patent US20260069588A1, “VEPDEGESTRANT FOR USE IN TREATING CANCER” (Arvinas Operation, Inc., priority 2022, published 2026).
Like-named read-outs stand apart in the source and are kept apart here. Marks after values point to notes of the source that are not given here.

Legend:
[1] = Phase 2 study of Compound A or anastrozole in early ER+/HER2− breast cancer: adverse events; conditions: TEAE, Treatment Related per title; Compound A 200 mg N = 23, Anastrozole 1 mg N = 13
[2] = Interconversion (epimerization) Compound A/Compound B in animals; assay type: in vivo, mouse, rat, dog, and monkey
hERG channel = hERG channel (Homo sapiens, UniProt Q12809); assay: hERG channel inhibition; assay type: biochemical
Experimental: The pivotal nonclinical safety studies were conducted in the US in accordance with GLP regulations per the US 21 CFR Part 58. These include the cardiovascular safety pharmacology study in dogs, the pivotal 28-day and 3-month repeat-dose toxicology studies in rats and dogs, and an in vitro phototoxicity assay. The bacterial reverse mutation assay, in vitro micronucleus assay, and 2 in vitro hERG studies were conducted in the UK in accordance with the UK Good Laboratory Practice Monitoring Authority, MHRA: Good Laboratory Practice Regulations 1999, Statutory Instrument 1999 No. 3106 as amended by the Good Laboratory Practice (Codification Amendments Etc.) Regulations, 2004, Statutory Instrument 2004, No. 994; and the OECD GLP and OECD Principles on Good Laboratory Practice ENV/MC/CHEM (98) 17 (Revised in 1997, Issued January 1998).accordance with the OECD Principles of Good Laboratory Practice and as accepted by Regulatory Authorities throughout the European Union, United States of America (FDA), Japan (MHLW), and other countries that are signatories to the OECD Mutual Acceptance of Data Agreement.

clinical = conditions: human, in vivo
[3] = human, in vivo
ER = target: T1, ER (Homo sapiens, UniProt P03372); assay: ER degradation in ER+ cell lines (MCF7); assay type: cell-based; parameters: endogenous in cells; host or cells: MCF7 (and a panel of unnamed ER+ cell lines)
T1 sequence (P03372 1-595): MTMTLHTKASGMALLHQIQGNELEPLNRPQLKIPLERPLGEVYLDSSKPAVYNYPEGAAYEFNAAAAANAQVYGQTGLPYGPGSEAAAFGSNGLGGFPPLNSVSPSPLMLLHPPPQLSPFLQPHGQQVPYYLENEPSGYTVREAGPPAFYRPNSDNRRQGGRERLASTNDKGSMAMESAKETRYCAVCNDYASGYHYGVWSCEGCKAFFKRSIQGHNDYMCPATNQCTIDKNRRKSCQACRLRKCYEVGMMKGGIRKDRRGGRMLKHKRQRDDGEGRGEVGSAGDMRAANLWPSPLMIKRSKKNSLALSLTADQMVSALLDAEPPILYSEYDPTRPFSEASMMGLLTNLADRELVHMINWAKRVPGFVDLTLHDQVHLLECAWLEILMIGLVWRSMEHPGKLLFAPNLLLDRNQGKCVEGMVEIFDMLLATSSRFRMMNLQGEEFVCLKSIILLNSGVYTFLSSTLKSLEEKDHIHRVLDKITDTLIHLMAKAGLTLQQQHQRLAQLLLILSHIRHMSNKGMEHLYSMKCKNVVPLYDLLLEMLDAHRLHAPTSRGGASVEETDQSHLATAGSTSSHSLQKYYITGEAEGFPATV

T47D cells = assay: Live-cell imaging proliferation, T47D; assay type: cell-based; conditions: Homo sapiens, 144 h, up to 6 days
From the text: (§1) Full growth of the cells over this time period is shown by extent of cell confluence with dimethyl sulfoxide (DMSO).

MCF7 cells = assay: Live-cell imaging proliferation, MCF7; assay type: cell-based; conditions: Homo sapiens, 144 h; MCF7, up to 6 days
From the text: as §1

Chain of hERG channel (Q12809 whole entry): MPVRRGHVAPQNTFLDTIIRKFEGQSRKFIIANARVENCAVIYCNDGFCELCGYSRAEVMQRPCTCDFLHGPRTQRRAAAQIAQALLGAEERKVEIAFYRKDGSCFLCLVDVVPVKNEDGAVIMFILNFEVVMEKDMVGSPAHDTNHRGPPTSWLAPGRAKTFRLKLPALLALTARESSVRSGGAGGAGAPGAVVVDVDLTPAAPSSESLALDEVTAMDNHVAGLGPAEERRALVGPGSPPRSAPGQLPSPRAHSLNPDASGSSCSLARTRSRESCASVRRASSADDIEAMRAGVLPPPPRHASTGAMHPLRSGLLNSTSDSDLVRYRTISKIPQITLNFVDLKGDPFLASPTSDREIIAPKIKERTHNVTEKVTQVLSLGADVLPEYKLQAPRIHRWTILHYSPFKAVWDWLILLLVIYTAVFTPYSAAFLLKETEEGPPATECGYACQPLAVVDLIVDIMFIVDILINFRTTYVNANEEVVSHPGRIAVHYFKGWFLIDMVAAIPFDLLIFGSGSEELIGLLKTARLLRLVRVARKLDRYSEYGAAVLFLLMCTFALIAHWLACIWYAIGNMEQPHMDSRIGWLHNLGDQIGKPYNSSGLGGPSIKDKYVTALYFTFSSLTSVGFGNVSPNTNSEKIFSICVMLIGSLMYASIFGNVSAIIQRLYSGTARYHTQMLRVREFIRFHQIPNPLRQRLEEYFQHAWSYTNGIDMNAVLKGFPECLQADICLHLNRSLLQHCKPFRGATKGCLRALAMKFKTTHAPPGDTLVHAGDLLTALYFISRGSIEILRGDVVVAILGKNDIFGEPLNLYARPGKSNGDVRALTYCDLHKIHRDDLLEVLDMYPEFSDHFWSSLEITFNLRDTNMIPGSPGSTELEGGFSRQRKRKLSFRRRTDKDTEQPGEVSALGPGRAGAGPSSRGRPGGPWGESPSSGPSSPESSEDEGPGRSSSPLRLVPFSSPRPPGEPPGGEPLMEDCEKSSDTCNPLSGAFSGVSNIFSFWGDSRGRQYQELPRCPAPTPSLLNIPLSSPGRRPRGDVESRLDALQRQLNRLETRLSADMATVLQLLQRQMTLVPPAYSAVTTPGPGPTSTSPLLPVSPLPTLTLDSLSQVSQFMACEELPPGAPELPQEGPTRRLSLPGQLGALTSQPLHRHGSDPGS

## CC(C)(C#N)c1cc(Cn2cncn2)cc(C(C)(C)C#N)c1 [Anastrozole]
[1]
  Anemia: 1 (7.7) n (%)
  Arthralgia: 1 (7.7) n (%)
  Asphyxia: 0 n (%)
  Asthenia: 0 n (%)
  Blood and lymphatic system disorders: 1 (7.7) n (%)
  Blood uric acid increased: 0 n (%)
  Breast pain: 0 n (%)
  Cardiac disorders: 0 n (%)
  Constipation: 1 (7.7) n (%)
  Diarrhea: 0 n (%)
  Dyspepsia: 1 (7.7) n (%)
  Fatigue: 0 n (%)
  Gastrointestinal disorders: 1 (7.7) n (%)
  General disorders and administration site conditions: 0 n (%)
  Hematocrit decreased: 1 (7.7) n (%)
  Heparin-induced thrombocytopenia: 0 n (%)
  Hepatobiliary disorders: 0 n (%)
  Hot flush: 0 n (%)
  Hyperbilirubinemia: 0 n (%)
  Hypercalcemia: 0 n (%)
  Hyperglycemia: 0 n (%)
  Hypernatremia: 0 n (%)
  Hypertransaminasemia: 0 n (%)
  Hypokalemia: 0 n (%)
  Hyponatremia: 0 n (%)
  Injury, poisoning and procedural complications: 0 n (%)
  Insomnia: 0 n (%)
  Investigations: 1 (7.7) n (%)
  Lymphopenia: 1 (7.7) n (%)
  Metabolism and nutrition disorders: 0 n (%)
  Musculoskeletal and connective tissue disorders: 1 (7.7) n (%)
  Myalgia: 1 (7.7) n (%)
  Nervous system disorders: 0 n (%)
  Odynophagia: 0 n (%)
  Procedural pain: 0 n (%)
  Pruritus: 0 n (%)
  Psychiatric disorders: 0 n (%)
  Pyrexia: 0 n (%)
  Reproductive system and breast disorders: 0 n (%)
  Respiratory, thoracic and mediastinal disorders: 0 n (%)
  Sinus bradycardia: 0 n (%)
  Skin and subcutaneous tissue disorders: 0 n (%)
  Somnolence: 0 n (%)
  Stomatitis: 0 n (%)
  Tension: 0 n (%)
  Vascular disorders: 0 n (%)
  With Any Adverse Event: 2 (15.4) n (%)

## O=C1CC[C@@H](N2Cc3cc(N4CCN(CC5CCN(c6ccc([C@@H]7c8ccc(O)cc8CC[C@@H]7c7ccccc7)cc6)CC5)CC4)ccc3C2=O)C(=O)N1 [Compound B]
[2]; monkey
  extent of epimerization: negligible
[2]; preclinical data
  exposure of Compound B compared to Compound A: < 26%
hERG channel
  IC50: > 20000 nM
hERG channel; recommended Phase 3 dose of 200 mg
  unbound Cmax margin to hERG IC50: ~499 ×
clinical; 30 mg
  half-life: 104 h
  Tmax: 8 h
clinical; 60 mg
  half-life: 110 h
clinical; 100 mg
  half-life: 99 h
  Tmax: 7.8 h
clinical; 120 mg
  half-life: 93 h
  Tmax: 7.8 h
clinical; 180 mg
  half-life: 92 h
  Tmax: 7.8 h
clinical; 200 mg
  half-life: 85 h
  Tmax: 7.8 h
clinical; 250 mg, AUCtau (AUC0-8)
  AUC(0-t): 179 ng·h/mL
clinical; 250 mg, AUCtau (AUC0-12)
  AUC(0-t): 7390 ng·h/mL
clinical; 250 mg
  Tmax: 7.8 h
clinical; 360 mg
  half-life: 96 h
  Tmax: 7.8 h
clinical; 500 mg
  half-life: 96 h
  Tmax: 7.8 h
clinical; 700 mg
  half-life: 52 h
  Tmax: 7.8 h
clinical
  Tmax: 7.8 h
[3]; 30 mg
  Rac (AUCtau): 7.1
  Tmax: 6.0 h
[3]; 60 mg
  Rac (AUCtau): 7.3
[3]; 100 mg
  Rac (AUCtau): 6.1 ^f
  Tmax: 6.0 h
[3]; 120 mg
  Rac (AUCtau): 5.7
  Tmax: 6.0 h
[3]; 180 mg
  Rac (AUCtau): 6.8
  Tmax: 5.9 h
[3]; 200 mg
  Rac (AUCtau): 5.1
  Tmax: 5.9 h
[3]; 250 mg
  MR AUCtau: 0.36
  Tmax: 4.1 h
[3]; 360 mg
  Rac (AUCtau): 5.9
  Tmax: 6.0 h
[3]; 500 mg
  Rac (AUCtau): 5.9
  Tmax: 6.0 h
[3]; 700 mg
  Rac (AUCtau): 3.7 ^g
  Tmax: 7.8 ^g h
ER
  ER degradation: does not degrade the ER

## C[C@]12CC[C@@H]3c4ccc(O)cc4C[C@@H](CCCCCCCCC[S+]([O-])CCCC(F)(F)C(F)(F)F)[C@H]3[C@@H]1CC[C@@H]2O (stereo partly shown) [fulvestrant, reference compound]
T47D cells
  GI50: 0.8 nM
MCF7 cells
  GI50: 0.4 nM
